Reference: paper PMC9499525, “Tissue-restricted inhibition of mTOR using chemical genetics” (Proceedings of the National Academy of Sciences of the …, 2022)

Tests used:
[1] = target: T1, FKBP12 V55G-HA / GST-mTOR FRB domain ternary complex (Homo sapiens, UniProt P42345+P62942, V56G); assay: TR-FRET ternary complex formation, FKBP12 V55G with mTOR FRB; type: binding
T1 construct: recombinant HA-tagged wild-type or V55G mutant FKBP12 with GST-tagged mTOR FRB domain; 8xHis (cleaved yes); made in house; host or cells: E. coli BL21 (DE3) for FKBP12
T1 sequence (P62942 whole entry V56G, the tested form may be a part): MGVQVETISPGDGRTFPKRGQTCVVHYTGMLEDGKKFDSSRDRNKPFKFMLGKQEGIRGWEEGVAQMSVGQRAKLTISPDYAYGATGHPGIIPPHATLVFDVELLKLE
T1 sequence (P42345 2012-2144 limits assumed): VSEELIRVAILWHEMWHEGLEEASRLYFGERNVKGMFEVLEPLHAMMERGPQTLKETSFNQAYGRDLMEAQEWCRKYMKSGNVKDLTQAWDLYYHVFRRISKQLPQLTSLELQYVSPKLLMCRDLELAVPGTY
Method: (§1) TR-FRET assay was performed using recommended conditions from Cisbio with slight modifications. FKBP12-HA, FKBP12 V55G-HA, and GST-mTORFRB recombinant proteins were each diluted to 5 nM in assay buffer (20 mM HEPES pH 7.5, 150 mM NaCl, 0.05% Tween-20, 0.1% bovine serum albumin [BSA], 0.5 mM dithiothreitol [DTT]). Anti-GST-Tb (Cisbio) and Anti-HA-XL665 (Cisbio) were diluted to 0.625 µg/mL and 5 µg/mL, respectively, in assay buffer. Rapa* compounds and FK506 were diluted to 50 µM and rapamycin to 5 µM in assay buffer containing 5% DMSO, and threefold serial dilution series were made from these solutions. We mixed 4 µL diluted FKBP12-HA protein, 4 µL diluted GST-mTORFRB, and 4 µL of compound or DMSO control in a well of a black low-volume 384-well plate (Corning 4514), and the mixture was incubated at room temperature for 1 h. We then added 4 µL of Anti-GST-Tb, and 4 µL Anti-HA-XL665, and the mixture was incubated at room temperature for an additional 1 h. Time-resolved fluorescence was read on a Tecan Spark 20M plate reader with the following parameters: Lag time: 60 µs; Integration time: 500 µs; Read A: Excitation filter 320 ([25]) nm, Emission filter 610 ([25]) nm, Gain 130; Read B: Excitation filter 320 ([25]) nm, Emission filter 665 ([8]) nm, Gain 165. Three replicates were performed for each assay condition. […]
Human FKBP12 coding sequence was cloned a pET-47b bacterial expression vector using Gibson assembly and a C-terminal HA-tag was added by QuickChange PCR. FKBP12 proteins were expressed as 8xHis fusions in E. coli BL21 (DE3) cells. […] Samples were then purified by size exclusion chromatography, concentrated to 10-20 mg/mL, and snap frozen in liquid nitrogen. pGEX-2T FRB was a gift from Jie Chen (Addgene plasmid #26607). mTOR FRB was expressed as a GST-fusion and purified as previously described (1). […]
PAMPA was performed by Quintara Discovery as described previously (2). Compounds were analyzed at 100 µM in PBS and measured using liquid chromatography-mass spectrometry (LC-MS) after 5 hours. […] Compounds were analyzed at 10 µM and measured by LC-MS after 1 hour.

[2] = target: T2, FKBP12-HA (wild-type) / GST-mTOR FRB domain ternary complex (Homo sapiens, UniProt P42345+P62942); assay: TR-FRET ternary complex formation, wild-type FKBP12 with mTOR FRB; type: binding
T2 construct: recombinant HA-tagged wild-type or V55G mutant FKBP12 with GST-tagged mTOR FRB domain; 8xHis (cleaved yes); made in house; host or cells: E. coli BL21 (DE3) for FKBP12
T2 sequence (P62942 whole entry, the tested form may be a part): as the sequence (P62942 whole entry V56G, the tested form may be a part) above, with G56V counted along it
T2 sequence (P42345 2012-2144 limits assumed): as the sequence (P42345 2012-2144 limits assumed) above
Method: as §1, with “We mixed 4 µL diluted FKBP12-HA protein, 4 µL diluted GST-mTORFRB, and 4 µL of compound or DMSO control in a well of a black low-volume 384-well plate (Corning 4514), and the mixture was incubated at room temperature for 1 h. We then added 4 µL of Anti-GST-Tb, and 4 µL Anti-HA-XL665, and the mixture was incubated at room temperature for an additional 1 h.” left out, “165.” for “165. Three replicates were performed for each assay condition.”
Human FKBP12 coding sequence was cloned a pET-47b bacterial expression vector using Gibson assembly and a C-terminal HA-tag was added by QuickChange PCR. FKBP12 proteins were expressed as 8xHis fusions in E. coli BL21 (DE3) cells. […]
PAMPA was performed by Quintara Discovery as described previously (2). Compounds were analyzed at 100 µM in PBS and measured using liquid chromatography-mass spectrometry (LC-MS) after 5 hours. […]

[3] = PAMPA membrane permeability; type: in vitro ADME; conditions: 100 µM in PBS, LC-MS
Method: PAMPA and Caco-2 membrane permeability assays
PAMPA was performed by Quintara Discovery as described previously (2). Compounds were
analyzed at 100 µM in PBS and measured using liquid chromatography-mass spectrometry (LC-

[4] = Bidirectional Caco-2 cell permeability; type: in vitro ADME; conditions: human, LC-MS
Method: PAMPA and Caco-2 membrane permeability assays […]
MS) after 5 hours. Bidirectional Caco-2 cell permeability assay was performed by Quintara
Discovery. Compounds were analyzed at 10 µM and measured by LC-MS after 1 hour.

[5] = system: S. cerevisiae BY4741 fpr1-KO expressing human FKBP12 variants; assay: Yeast disk diffusion growth inhibition assay; type: cell-based, Saccharomyces cerevisiae; conditions: 100 µM on disk, 3 d
Description: BY4741 fpr1::URA3 yeast were generated by homologous recombination, selected on Ura- synthetic complete medium and subsequently grown in yeast extract-peptone-dextrose (YPD) medium ([46]). Human FKBP12 coding sequence was cloned via Gibson assembly into a pCH043 yeast expression vector, which had been previously modified with an HIS3 selection open reading frame (ORF). The C-terminal HA-tag and F46/V55 mutations were introduced by site-directed mutagenesis PCR. Plasmids were transformed into the BY4741 fpr1::URA3 strain and selected on His- synthetic complete medium. Isolated strains were verified by plasmid sequencing. To prepare yeast protein lysates, 2 optical density (OD) equivalents from an overnight culture was resuspended in 200 µl 0.1 M NaOH and incubated at room temperature for 15 min. Cells were pelleted, resuspended in 50 µL 2x SDS loading dye, and heated at 95 °C for 5 min. Following centrifugation at 20,000 × g for 10 min, supernatant was saved for analysis.
Yeast strains containing FKBP12-expression vectors were shaken overnight at 30 °C in 3 mL His- synthetic complete media. 0.1 OD of culture was spun down, resuspended in 1 mL sterile water, and 100 µL was spread on His-synthetic media containing galactose/raffinose to induce protein expression. Plates were incubated at 30 °C for 1 h to dry. Filter paper circles were prepared with a hole punch, placed on the plate, and 5 µL of DMSO, 100 µM rapamycin, or 100 µM Rapa* compound was pipetted onto the filter paper. Plates were incubated at 30 °C for 3 d before zones of growth inhibition were measured.

[6] = system: Drosophila larvae (w1118 control and FKBP12 V55G transgenic); assay: Drosophila larval development (pupae 9 d after egg laying); type: in vivo
Method: All Drosophila stocks and crosses were maintained on standard cornmeal-molasses food at 25 °C using a 12-h light/dark cycle. To generate UAS-FKBP12 V55G-HA transgenic lines, human FKBP12 V55G-HA ORF was cloned into a pUAST-attB vector between EcoR-I and Xho-I restriction sites. This construct was then integrated into an attB site using phiC31 integrase with the assistance of Rainbow Transgenic Flies, Inc. The driver stocks da-GAL4 (ubiquitous), elav-GAL4 and nSyb-GAL4 (neuronal-specific), Mef2-GAL4 and mhc-GAL4 (musculature), and 2–286-GAL4 and phm-GAL4 (ring-gland-specific) were obtained from Bloomington Drosophila Stock Center. The crossing schemes used in this study are depicted in SI Appendix, Fig. S11. For rapamycin or Rapa*3Z related experiments, fly food was prepared freshly 24 h before each experiment.
Fly food containing ethanol vehicle was used as control. […] Three biological replicates were used for each experiment. Data were analyzed using Prism 9.0 (GraphPad).

[7] = system: Flp-In 293 cells with and without FKBP12 V55G-HA; assay: Cell growth by CellTiter-Glo in Flp-In 293 cells; type: cell-based, human; conditions: 72 h treatment
Method: All cell lines were maintained in DMEM (Gibco) supplemented with 10% heat-inactivated FBS (Axenia Biologix) at 37 °C in 5% CO2. Flp-In T-REx 293 cells were obtained from Thermo Fisher supplemented with 15 µg/mL blasticin and 100 µg/mL Zeocin. […] When indicated, cells were treated with drugs at 60–80% confluency at a final DMSO concentration of 0.1%.
Cells were seeded into 96-well tissue-culture treated plates (Greiner) and were allowed to incubate for 24 h. Cells were treated with indicated compounds and incubated for 72 h (100 µL final well volume, 0.1% DMSO). Cell viability was assessed by CellTiter-Glo (Promega). Assay reagent was diluted 1:4 in PBS containing 1% Triton X-100, and 100 µL was added to each well and mixed on a plate shaker for 20 min. Luminescence was measured on a Tecan Spark 20M.

SMILES	Ternary complex induction (in words), FKBP12 V55G [1]	Ternary complex induction (in words), wild-type FKBP12 [2]	Papp at 5 h, 100 µM [3] [×10⁻⁶ cm/s]	Papp A→B at 1 h, 10 µM [4] [×10⁻⁶ cm/s]	Papp B→A at 1 h, 10 µM [4] [×10⁻⁶ cm/s]	Growth inhibition of yeast, fpr1-KO with empty vector [5]	Growth inhibition of yeast expressing wild-type human FKBP12 ([5]; fpr1-KO + human FKBP12)	Growth inhibition of yeast expressing FKBP12 F46/V55 mutants ([5]; mutant strains)	Effect on larval development in wild-type animals ([6]; wild-type (w1118) larvae, compound in food)	Dose required for complete inhibition of larval development ([6]; wild-type flies (w1118), in food, 9 d after egg laying) [µM]	Selectivity of ternary complex induction, wild-type vs V55G ([1]; FKBP12 vs FKBP12 V55G)	Cell growth inhibition, 293 cells with and without FKBP12 V55G [7]
C=CC[C@@H]1/C=C(\C)C[C@H](C)C[C@H](OC)[C@H]2O[C@@](O)(C(=O)C(=O)N3CCCC[C@H]3C(=O)O[C@H](/C(C)=C/[C@@H]3CC[C@@H](O)[C@H](OC)C3)[C@H](C)[C@@H](O)CC1=O)[C@H](C)C[C@@H]2OC [FK506, reference compound]	failed to induce either ternary complex	failed to induce either ternary complex	–	–	–	–	–	–	–	–	–	–
CO[C@H]1C[C@@H]2CC[C@@H](C)[C@@](O)(O2)C(=O)C(=O)N2CCCC[C@H]2C(=O)O[C@H]([C@H](C)C[C@@H]2CC[C@@H](O)[C@H](OC)C2)C/C(=N/O)[C@H](C)/C=C(\C)[C@@H](O)[C@@H](OC)C(=O)[C@H](C)C[C@H](C)/C=C/C=C/C=C/1C [Rapa*-1Z]	–	–	0.002	< 0.3	1.6	–	–	–	–	–	–	–
C=CCO/N=C1/C[C@@H]([C@H](C)C[C@@H]2CC[C@@H](O)[C@H](OC)C2)OC(=O)[C@@H]2CCCCN2C(=O)C(=O)[C@]2(O)O[C@@H](CC[C@H]2C)C[C@H](OC)/C(C)=C/C=C/C=C/[C@@H](C)C[C@@H](C)C(=O)[C@H](OC)[C@H](O)/C(C)=C/[C@H]1C [Rapa*-9Z]	–	–	0.014	< 0.1	0.4	–	–	–	–	–	–	–
CO[C@H]1C[C@@H]2CC[C@@H](C)[C@@](O)(O2)C(=O)C(=O)N2CCCC[C@H]2C(=O)O[C@H]([C@H](C)C[C@@H]2CC[C@@H](O)[C@H](OC)C2)CC(=O)[C@H](C)/C=C(\C)[C@@H](O)[C@@H](OC)C(=O)[C@H](C)C[C@H](C)/C=C/C=C/C=C/1C [rapamycin, reference compound]	–	–	0.209	0.8	2.3	conferred resistance to rapamycin	rescued full sensitivity	retained activity, albeit reduced, in the mutant strains	profound inhibition of larval development	1	slightly selective toward the wild-type complex	inhibited mutant and wild-type cells equally
